According to ChEMBL document CHEMBL4507311, “Data for DCP probe A-1155463” (2021):

Columns and labels:
[1] = target: Inhibitor of nuclear factor kappa-B kinase subunit alpha (Homo sapiens) (UniProt O15111); conditions: Compound concentration 1000.0 nM
[2] = tested on: Mast/stem cell growth factor receptor Kit (Homo sapiens), P10721 [D816V]; conditions: Compound concentration 1000.0 nM
[3] = target: Ribosomal protein S6 kinase alpha-3 (Homo sapiens) (UniProt P51812); conditions: Compound concentration 1000.0 nM
[4] = target: Macrophage colony-stimulating factor 1 receptor (Homo sapiens) (UniProt P07333); conditions: Compound concentration 1000.0 nM
[5] = target: Calcium/calmodulin-dependent protein kinase type IV (Homo sapiens) (UniProt Q16566); conditions: Compound concentration 1000.0 nM
[6] = target: G protein-coupled receptor kinase 4 (Homo sapiens) (UniProt P32298); conditions: Compound concentration 1000.0 nM
[7] = target: MAP kinase-interacting serine/threonine-protein kinase 1 (Homo sapiens) (UniProt Q9BUB5); conditions: Compound concentration 1000.0 nM
[8] = target: Serine/threonine-protein kinase TBK1 (Homo sapiens) (UniProt Q9UHD2); conditions: Compound concentration 1000.0 nM
[9] = target: Activated CDC42 kinase 1 (Homo sapiens) (UniProt Q07912); conditions: Compound concentration 1000.0 nM
[10] = target: ALK tyrosine kinase receptor (Homo sapiens) (UniProt Q9UM73); conditions: Compound concentration 1000.0 nM
[11] = target: Citron Rho-interacting kinase (Homo sapiens) (UniProt O14578); conditions: Compound concentration 1000.0 nM
[12] = target: Phosphatidylinositol 4,5-bisphosphate 3-kinase catalytic subunit gamma isoform (Homo sapiens) (UniProt P48736); conditions: Compound concentration 1000.0 nM
[13] = target: Receptor tyrosine-protein kinase erbB-3 (Homo sapiens) (UniProt P21860); conditions: Compound concentration 1000.0 nM
Receptor tyrosine-protein kinase erbB-3 (Homo sapiens), sequence (P21860 whole entry): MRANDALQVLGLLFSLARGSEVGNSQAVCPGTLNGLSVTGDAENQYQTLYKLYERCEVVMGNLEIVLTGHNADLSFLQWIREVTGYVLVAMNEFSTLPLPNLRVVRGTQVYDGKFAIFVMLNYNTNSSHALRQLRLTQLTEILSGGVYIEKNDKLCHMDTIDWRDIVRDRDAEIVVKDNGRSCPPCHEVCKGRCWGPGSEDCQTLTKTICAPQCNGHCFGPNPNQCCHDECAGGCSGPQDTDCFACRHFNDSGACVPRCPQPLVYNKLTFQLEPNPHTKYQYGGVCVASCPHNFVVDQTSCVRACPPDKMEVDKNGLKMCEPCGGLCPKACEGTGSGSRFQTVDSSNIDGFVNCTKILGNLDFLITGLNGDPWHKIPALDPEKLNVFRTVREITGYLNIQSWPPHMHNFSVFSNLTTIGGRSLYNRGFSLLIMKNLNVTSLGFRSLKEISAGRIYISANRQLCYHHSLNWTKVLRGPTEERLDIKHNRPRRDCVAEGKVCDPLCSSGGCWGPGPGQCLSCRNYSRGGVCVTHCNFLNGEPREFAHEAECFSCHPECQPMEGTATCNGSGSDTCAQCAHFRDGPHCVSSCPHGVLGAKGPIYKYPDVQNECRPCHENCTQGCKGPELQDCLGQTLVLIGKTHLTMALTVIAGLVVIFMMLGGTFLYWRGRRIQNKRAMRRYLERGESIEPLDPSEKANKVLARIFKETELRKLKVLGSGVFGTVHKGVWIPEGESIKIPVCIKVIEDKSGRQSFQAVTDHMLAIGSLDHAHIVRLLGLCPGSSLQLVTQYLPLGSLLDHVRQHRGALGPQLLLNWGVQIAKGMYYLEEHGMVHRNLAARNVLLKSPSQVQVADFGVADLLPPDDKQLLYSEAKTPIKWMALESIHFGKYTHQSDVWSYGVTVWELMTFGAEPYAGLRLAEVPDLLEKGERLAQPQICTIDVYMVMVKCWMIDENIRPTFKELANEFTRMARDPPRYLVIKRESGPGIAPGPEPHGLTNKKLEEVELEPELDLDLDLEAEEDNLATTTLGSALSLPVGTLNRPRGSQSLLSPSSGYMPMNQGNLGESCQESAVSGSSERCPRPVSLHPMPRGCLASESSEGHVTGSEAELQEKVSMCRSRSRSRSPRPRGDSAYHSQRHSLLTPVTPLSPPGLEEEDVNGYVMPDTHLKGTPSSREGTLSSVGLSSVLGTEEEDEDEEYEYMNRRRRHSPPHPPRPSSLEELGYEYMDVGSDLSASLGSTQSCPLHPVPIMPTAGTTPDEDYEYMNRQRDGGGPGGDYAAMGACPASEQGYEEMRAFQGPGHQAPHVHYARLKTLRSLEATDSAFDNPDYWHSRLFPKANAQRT

[14] = target: Cyclin-dependent kinase 11A (Homo sapiens) (UniProt Q9UQ88); conditions: Compound concentration 1000.0 nM
[15] = target: Rhodopsin kinase GRK1 (Homo sapiens) (UniProt Q15835); conditions: Compound concentration 1000.0 nM
Rhodopsin kinase GRK1 (Homo sapiens), sequence (Q15835 whole entry): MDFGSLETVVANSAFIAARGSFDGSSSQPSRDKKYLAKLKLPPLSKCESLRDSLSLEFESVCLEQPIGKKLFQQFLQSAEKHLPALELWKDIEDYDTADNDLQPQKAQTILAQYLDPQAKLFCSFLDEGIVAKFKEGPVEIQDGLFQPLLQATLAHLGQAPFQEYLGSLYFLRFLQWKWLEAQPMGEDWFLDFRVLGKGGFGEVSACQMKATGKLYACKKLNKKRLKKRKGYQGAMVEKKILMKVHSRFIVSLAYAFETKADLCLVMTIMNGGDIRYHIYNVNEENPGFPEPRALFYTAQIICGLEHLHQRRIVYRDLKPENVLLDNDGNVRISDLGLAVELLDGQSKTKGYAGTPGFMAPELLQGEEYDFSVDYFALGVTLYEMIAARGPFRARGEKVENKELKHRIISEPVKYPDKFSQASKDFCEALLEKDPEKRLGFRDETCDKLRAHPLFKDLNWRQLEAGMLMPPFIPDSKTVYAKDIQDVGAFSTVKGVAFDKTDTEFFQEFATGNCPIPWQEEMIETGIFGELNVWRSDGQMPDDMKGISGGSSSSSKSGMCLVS

[16] = target: Serine/threonine-protein kinase mTOR (Homo sapiens) (UniProt P42345); conditions: Compound concentration 1000.0 nM
[17] = target: Activin receptor type-1-like (Homo sapiens) (UniProt P37023); conditions: Compound concentration 1000.0 nM
[18] = target: Protein kinase C epsilon type (Homo sapiens) (UniProt Q02156); conditions: Compound concentration 1000.0 nM
Protein kinase C epsilon type (Homo sapiens), sequence (Q02156 whole entry): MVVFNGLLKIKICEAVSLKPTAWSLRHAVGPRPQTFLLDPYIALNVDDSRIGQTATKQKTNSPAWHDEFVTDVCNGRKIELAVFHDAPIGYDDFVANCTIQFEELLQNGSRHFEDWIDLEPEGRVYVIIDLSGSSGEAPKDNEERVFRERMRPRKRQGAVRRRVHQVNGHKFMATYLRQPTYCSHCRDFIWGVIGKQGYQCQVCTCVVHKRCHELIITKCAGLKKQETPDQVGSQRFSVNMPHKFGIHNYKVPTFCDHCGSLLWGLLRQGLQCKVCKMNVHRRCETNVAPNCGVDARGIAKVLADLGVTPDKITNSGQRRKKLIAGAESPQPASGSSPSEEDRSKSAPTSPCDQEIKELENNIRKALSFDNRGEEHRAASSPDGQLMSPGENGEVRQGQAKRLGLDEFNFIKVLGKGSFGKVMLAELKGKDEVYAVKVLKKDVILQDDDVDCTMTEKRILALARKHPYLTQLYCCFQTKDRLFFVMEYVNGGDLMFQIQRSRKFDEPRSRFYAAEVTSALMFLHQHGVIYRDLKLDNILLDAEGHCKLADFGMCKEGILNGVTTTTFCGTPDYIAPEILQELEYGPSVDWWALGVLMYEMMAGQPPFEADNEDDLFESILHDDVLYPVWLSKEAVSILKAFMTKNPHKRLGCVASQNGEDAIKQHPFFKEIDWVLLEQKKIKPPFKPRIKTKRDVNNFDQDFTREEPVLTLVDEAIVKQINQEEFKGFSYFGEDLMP

[19] = target: Mitogen-activated protein kinase kinase kinase 12 (Homo sapiens) (UniProt Q12852); conditions: Compound concentration 1000.0 nM
[20] = target: Activin receptor type-1 (Homo sapiens) (UniProt Q04771); conditions: Compound concentration 1000.0 nM
Activin receptor type-1 (Homo sapiens), sequence (Q04771 whole entry): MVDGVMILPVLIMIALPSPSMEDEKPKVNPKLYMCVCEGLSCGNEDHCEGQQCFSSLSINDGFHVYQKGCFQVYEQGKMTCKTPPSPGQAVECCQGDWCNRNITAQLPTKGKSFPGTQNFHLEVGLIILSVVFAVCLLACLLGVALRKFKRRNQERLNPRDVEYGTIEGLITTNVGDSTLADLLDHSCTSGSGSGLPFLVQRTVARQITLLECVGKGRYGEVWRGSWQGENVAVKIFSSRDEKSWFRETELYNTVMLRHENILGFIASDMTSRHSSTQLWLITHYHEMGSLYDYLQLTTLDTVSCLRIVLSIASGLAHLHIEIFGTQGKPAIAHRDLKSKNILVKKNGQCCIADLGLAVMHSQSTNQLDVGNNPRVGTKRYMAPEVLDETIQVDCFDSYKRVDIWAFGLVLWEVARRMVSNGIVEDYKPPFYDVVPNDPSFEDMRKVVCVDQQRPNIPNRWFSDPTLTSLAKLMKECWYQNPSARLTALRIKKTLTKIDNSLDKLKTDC

[21] = target: Myosin-IIIb (Homo sapiens) (UniProt Q8WXR4); conditions: Compound concentration 1000.0 nM
[22] = target: Cyclin-dependent kinase 4 (Homo sapiens) (UniProt P11802); conditions: Compound concentration 1000.0 nM
[23] = target: Aurora kinase B (Homo sapiens) (UniProt Q96GD4); conditions: Compound concentration 1000.0 nM
[24] = target: Calcium/calmodulin-dependent protein kinase type 1D (Homo sapiens) (UniProt Q8IU85); conditions: Compound concentration 1000.0 nM
[25] = target: Cyclin-dependent kinase 14 (Homo sapiens) (UniProt O94921); conditions: Compound concentration 1000.0 nM
[26] = target: Myotonin-protein kinase (Homo sapiens) (UniProt Q09013); conditions: Compound concentration 1000.0 nM
[27] = target: TGF-beta receptor type-2 (Homo sapiens) (UniProt P37173); conditions: Compound concentration 1000.0 nM
[28] = target: Myosin light chain kinase (Homo sapiens) (UniProt Q32MK0); conditions: Compound concentration 1000.0 nM
[29] = target: Serine/threonine-protein kinase 4 (Homo sapiens) (UniProt Q13043); conditions: Compound concentration 1000.0 nM
[30] = target: Serine/threonine-protein kinase Nek7 (Homo sapiens) (UniProt Q8TDX7); conditions: Compound concentration 1000.0 nM
[31] = target: Tyrosine-protein kinase receptor UFO (Homo sapiens) (UniProt P30530); conditions: Compound concentration 1000.0 nM
[32] = target: Phosphatidylinositol 4-phosphate 5-kinase type-1 alpha (Homo sapiens) (UniProt Q99755); conditions: Compound concentration 1000.0 nM
[33] = tested on: Phosphatidylinositol 4,5-bisphosphate 3-kinase catalytic subunit alpha isoform (Homo sapiens), P42336 [M1043I]; conditions: Compound concentration 1000.0 nM
[34] = target: Histamine H4 receptor (Homo sapiens) (UniProt Q9H3N8); conditions: Compound concentration 10.0 uM
[35] = target: MAP/microtubule affinity-regulating kinase 3 (Homo sapiens) (UniProt P27448); conditions: Compound concentration 1000.0 nM
[36] = target: Mitogen-activated protein kinase kinase kinase kinase 4 (Homo sapiens) (UniProt O95819); conditions: Compound concentration 1000.0 nM
[37] = tested on: Tyrosine-protein kinase ABL1 (Homo sapiens), P00519 [F317I]; conditions: Compound concentration 1000.0 nM
[38] = tested on: Tyrosine-protein kinase ABL1 (Homo sapiens), P00519 [H396P]; conditions: Compound concentration 1000.0 nM
[39] = tested on: Tyrosine-protein kinase ABL1 (Homo sapiens), P00519 [F317L]; conditions: Compound concentration 1000.0 nM
[40] = target: Sodium-dependent serotonin transporter (Homo sapiens) (UniProt P31645); conditions: Compound concentration 10.0 uM
Histamine H3 receptor = Histamine H3 receptor (Homo sapiens, UniProt Q9Y5N1); assay: GPCRScan assay: inhibition of H3; design: radioligand conc. used [nm] 0.5 – 1.0, parental cells HEK Flp-In

Inhibitor of nuclear factor kappa-B kinase subunit alpha (Homo sapiens), sequence (O15111 whole entry): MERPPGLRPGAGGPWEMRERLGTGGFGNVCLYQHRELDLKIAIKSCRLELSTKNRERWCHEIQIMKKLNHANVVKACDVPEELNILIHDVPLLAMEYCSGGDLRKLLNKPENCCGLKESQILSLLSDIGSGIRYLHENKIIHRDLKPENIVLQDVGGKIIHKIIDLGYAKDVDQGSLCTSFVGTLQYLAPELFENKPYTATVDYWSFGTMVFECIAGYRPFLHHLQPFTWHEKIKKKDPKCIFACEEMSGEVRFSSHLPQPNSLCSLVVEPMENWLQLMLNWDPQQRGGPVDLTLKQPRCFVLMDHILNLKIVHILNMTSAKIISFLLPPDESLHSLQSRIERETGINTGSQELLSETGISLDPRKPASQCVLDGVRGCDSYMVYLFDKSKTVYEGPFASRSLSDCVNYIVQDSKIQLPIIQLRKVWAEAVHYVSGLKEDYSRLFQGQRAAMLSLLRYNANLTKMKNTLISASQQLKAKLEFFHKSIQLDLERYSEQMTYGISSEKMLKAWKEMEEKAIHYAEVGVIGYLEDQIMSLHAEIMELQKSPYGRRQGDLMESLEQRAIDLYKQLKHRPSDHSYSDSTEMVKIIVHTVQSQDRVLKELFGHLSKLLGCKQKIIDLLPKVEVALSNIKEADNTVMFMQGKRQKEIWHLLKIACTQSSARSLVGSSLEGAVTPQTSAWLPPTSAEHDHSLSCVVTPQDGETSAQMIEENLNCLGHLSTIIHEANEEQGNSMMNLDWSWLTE
Mast/stem cell growth factor receptor Kit (Homo sapiens), P10721 [D816V], sequence (P10721 whole entry D816V): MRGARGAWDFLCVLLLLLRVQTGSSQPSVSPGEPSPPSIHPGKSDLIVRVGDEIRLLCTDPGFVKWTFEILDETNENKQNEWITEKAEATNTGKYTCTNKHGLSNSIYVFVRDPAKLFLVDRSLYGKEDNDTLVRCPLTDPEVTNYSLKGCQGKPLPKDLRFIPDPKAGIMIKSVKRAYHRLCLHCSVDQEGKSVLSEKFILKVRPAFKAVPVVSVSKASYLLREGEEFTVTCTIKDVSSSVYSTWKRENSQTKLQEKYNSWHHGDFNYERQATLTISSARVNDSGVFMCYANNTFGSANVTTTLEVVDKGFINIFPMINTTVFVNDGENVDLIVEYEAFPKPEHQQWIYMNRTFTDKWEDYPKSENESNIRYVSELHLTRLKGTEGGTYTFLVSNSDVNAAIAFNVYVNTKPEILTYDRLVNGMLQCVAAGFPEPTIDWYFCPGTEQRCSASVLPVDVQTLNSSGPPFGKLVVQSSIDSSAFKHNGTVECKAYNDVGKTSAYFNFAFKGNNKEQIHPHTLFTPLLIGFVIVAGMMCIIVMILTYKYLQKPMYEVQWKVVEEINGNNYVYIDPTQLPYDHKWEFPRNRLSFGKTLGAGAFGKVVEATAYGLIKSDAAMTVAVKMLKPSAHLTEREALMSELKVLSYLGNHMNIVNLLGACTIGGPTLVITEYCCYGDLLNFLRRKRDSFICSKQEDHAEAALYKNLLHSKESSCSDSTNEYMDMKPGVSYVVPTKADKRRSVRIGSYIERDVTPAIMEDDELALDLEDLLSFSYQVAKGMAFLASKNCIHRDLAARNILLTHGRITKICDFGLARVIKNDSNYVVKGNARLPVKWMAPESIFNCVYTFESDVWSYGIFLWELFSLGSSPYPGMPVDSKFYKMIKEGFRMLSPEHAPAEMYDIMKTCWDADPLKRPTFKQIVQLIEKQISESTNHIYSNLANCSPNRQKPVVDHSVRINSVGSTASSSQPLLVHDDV

Which results are given for `CN(C)CC#Cc1ccc(OCCCc2sc(N3CCc4cccc(C(=O)Nc5nc6ccccc6s5)c4C3)nc2C(=O)O)c(F)c1` [A-1155463]?
residual activity [1]: 81%; residual activity [2]: 100%; residual activity [3]: 100%; residual activity [4]: 100%; residual activity [5]: 98%; residual activity [6]: 100%; residual activity [7]: 78%; residual activity [8]: 100%; residual activity [9]: 100%; residual activity [10]: 100%; residual activity [11]: 77%; residual activity [12]: 100%; residual activity [13]: 100%; residual activity [14]: 100%; residual activity [15]: 95%; residual activity [16]: 100%; residual activity [17]: 82%; residual activity [18]: 100%; residual activity [19]: 100%; residual activity [20]: 100%; residual activity [21]: 96%; residual activity [22]: 100%; residual activity [23]: 79%; residual activity [24]: 90%; residual activity [25]: 100%; residual activity [26]: 100%; residual activity [27]: 83%; residual activity [28]: 78%; residual activity [29]: 100%; residual activity [30]: 99%; residual activity [31]: 92%; residual activity [32]: 100%; residual activity [33]: 96%; inhibition [34]: 6.5%; residual activity [35]: 38%; residual activity [36]: 96%; residual activity [37]: 100%; residual activity [38]: 99%; residual activity [39]: 100%; inhibition [40]: 16.4%; Ki (Histamine H3 receptor): 1.81 µM
